Molecular target: T1, human F508del CFTR (Homo sapiens, UniProt P13569, DEL508-508)
T1 construct: expressed in transfected cells; host or cells: Fisher Rat Thyroid (FRT) cells
Experiment: CFTR-YFP High Throughput Assay
Format: cell-based
Conditions: FRT cells expressing human F508del CFTR and YFP; for Emax: EMax normalized to the positive control, read-out: % Efficacy
Method in brief: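 Corrector mode: 24-26 h compound exposure (2 nM-40 μM, 37° C) of FRT cells carrying human F508del CFTR and YFP-H148Q/I152L, followed by washing and 60-120 min RT stimulation with 20 μM forskolin and 30 μM P3. CFTR activity is the least-squares-fitted rate of YFP quenching (Ex 500/Em 540 nm) after iodide addition.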

T1 sequence (P13569 with tags, fused parts or gaps DEL508-508): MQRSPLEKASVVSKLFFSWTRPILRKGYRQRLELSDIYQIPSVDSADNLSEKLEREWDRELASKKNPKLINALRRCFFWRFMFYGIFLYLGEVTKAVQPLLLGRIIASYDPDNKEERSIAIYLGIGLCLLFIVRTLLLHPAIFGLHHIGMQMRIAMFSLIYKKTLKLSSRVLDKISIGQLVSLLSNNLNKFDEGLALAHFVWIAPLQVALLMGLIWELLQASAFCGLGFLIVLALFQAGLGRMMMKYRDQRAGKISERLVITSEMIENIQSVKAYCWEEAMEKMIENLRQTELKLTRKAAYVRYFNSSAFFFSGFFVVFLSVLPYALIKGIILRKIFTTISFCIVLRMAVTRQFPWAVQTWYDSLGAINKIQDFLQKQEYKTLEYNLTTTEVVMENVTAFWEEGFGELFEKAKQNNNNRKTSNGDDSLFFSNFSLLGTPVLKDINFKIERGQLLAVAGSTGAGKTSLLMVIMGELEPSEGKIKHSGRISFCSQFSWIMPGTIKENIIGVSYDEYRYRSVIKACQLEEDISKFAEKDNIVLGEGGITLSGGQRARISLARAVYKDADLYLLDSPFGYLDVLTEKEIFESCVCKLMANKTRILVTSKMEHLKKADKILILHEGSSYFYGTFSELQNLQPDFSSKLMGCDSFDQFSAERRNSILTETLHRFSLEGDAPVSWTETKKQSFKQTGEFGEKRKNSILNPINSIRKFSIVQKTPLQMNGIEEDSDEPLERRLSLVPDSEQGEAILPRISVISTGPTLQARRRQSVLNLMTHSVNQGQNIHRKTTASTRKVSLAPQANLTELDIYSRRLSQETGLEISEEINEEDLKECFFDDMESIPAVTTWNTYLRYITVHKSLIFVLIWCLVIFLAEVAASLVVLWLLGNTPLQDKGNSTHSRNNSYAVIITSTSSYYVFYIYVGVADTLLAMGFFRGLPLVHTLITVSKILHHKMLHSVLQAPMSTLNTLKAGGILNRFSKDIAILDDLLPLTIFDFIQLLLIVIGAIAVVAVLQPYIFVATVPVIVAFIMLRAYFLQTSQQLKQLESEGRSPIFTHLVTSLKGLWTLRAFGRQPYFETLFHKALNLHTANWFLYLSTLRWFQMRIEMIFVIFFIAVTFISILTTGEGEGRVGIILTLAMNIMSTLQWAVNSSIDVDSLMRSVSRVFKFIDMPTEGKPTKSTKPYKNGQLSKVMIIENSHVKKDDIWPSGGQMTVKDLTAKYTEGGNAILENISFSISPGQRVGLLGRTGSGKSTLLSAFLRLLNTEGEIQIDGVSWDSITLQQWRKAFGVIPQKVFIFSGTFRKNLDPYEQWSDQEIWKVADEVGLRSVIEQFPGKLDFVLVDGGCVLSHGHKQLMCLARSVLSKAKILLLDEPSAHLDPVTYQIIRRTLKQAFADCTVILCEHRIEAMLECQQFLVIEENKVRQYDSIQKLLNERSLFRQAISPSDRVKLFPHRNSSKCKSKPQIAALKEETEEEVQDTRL

Row | Emax [%] | EC50 [µM] | SMILES
1 | 30 to 80 | < 10 | CCN(C(=O)c1nn(C)c(=O)c2c1c1ccccc1n2C)c1cccc(Cl)c1 [Example 209, N-(3-chlorophenyl)-N-ethyl-3,5-dimethyl-4-oxo-4,5-dihydro-3H-pyridazino[4,5-b]indole-1-carboxamide]
2 | 30 to 80 |  | CCN(C(=O)Cn1nc(C(=O)Nc2ccccc2C#N)c2ccccc2c1=O)c1ccc2c(c1)OC(F)(F)O2 [Example 124, N-(2-cyanophenyl)-3-(2-((2,2-difluorobenzo[d][1, 3]dioxol-5-yl)(ethyl)amino)-2-oxoethyl)-4-oxo-3,4-dihydrophthalazine-1-carboxamide]
3 | 30 to 80 | > 20 | CCN(C(=O)Cn1ncc2c([nH]c3ccccc32)c1=O)c1ccc2c(c1)OC(F)(F)O2 [Example 222, N-(2,2-difluorobenzo[d][1, 3]dioxol-5-yl)-N-ethyl-2-(4-oxo-4,5-dihydro-3H-pyridazino[4,5-b]indol-3-yl)acetamide]
4 | 10 to 30 | > 20 | Cn1c2ccccc2c2c(-c3ccccc3)nn(-c3ccccc3F)c(=O)c21 [Example 237, 3-(2-fluorophenyl)-5-methyl-1-phenyl-3H-pyridazino[4,5-b]indol-4(5H)-one]
5 | 30 to 80 |  | CCN(C(=O)Cn1nc(Cc2cccnc2)c2cc(C)ccc2c1=O)c1ccc2c(c1)OC(F)(F)O2 [Example 46, N-(2,2-difluorobenzo[d][1,3]dioxol-5-yl)-N-ethyl-2-(6-methyl-1-oxo-4-(pyridin-3-ylmethyl)phthalazin-2(1H)-yl)acetamide]
6 | > 80 |  | CCN(C(=O)Cn1nc(Cc2cccnc2)c2cc(C(C)(C)C)ccc2c1=O)c1ccc2c(c1)OC(F)(F)O2 [Example 49, 2-(6-(tert-butyl)-1-oxo-4-(pyridin-3-ylmethyl)phthalazin-2(1H)-yl)-N-(2,2-difluorobenzo[d][1,3]dioxol-5-yl)-N-ethylacetamide]
7 | 30 to 80 | < 10 | Cc1ccc(-n2nc(CN3CCOCC3)c3c4ccccc4n(C)c3c2=O)cc1 [Example 243, 5-methyl-1-(morpholinomethyl)-3-(p-tolyl)-3,5-dihydro-4H-pyridazino[4,5-b]indol-4-one]
8 | 30 to 80 | < 10 | CC(C)N(C(=O)c1nn(-c2ccccc2)c(=O)c2c1c1ccccc1n2C)c1ccc(Cl)cc1 [Example 190, N-(4-chlorophenyl)-N-isopropyl-5-methyl-4-oxo-3-phenyl-4,5-dihydro-3H-pyridazino[4,5-b]indole-1-carboxamide]
9 | 30 to 80 |  | CCN(C(=O)c1nn(-c2ccccn2)c(=O)c2c1c1ccccc1n2C)c1ccccc1 [Example 167, N-ethyl-5-methyl-4-oxo-N-phenyl-3-(pyridin-2-yl)-4,5-dihydro-3H-pyridazino[4,5-b]indole-1-carboxamide]
10 | 30 to 80 | < 10 | CCN(CC)C(=O)c1nn(CC(O)COCc2ccccc2)c(=O)c2c1c1c(Cl)cccc1n2C (stereo not drawn) [Example 233, 3-(3-(benzyloxy)-2-hydroxypropyl)-9-chloro-N,N-diethyl-5-methyl-4-oxo-4,5-dihydro-3H-pyridazino[4,5-b]indole-1-carboxamide]
11 | 30 to 80 | < 10 | CCN(C(=O)Cn1ncc2c(c1=O)c1ccccc1n2Cc1cccc(OC)c1)c1ccc2c(c1)OC(F)(F)O2 [Example 135, N-(2,2-difluorobenzo[d][1,3]dioxol-5-yl)-N-ethyl-2-(5-(3-methoxybenzyl)-1-oxo-1H-pyridazino[4,5-b]indol-2(5H)-yl)acetamide]
12 | 30 to 80 |  | CCN(C(=O)c1nn(-c2ccc(C)cc2)c(=O)c2c1c1ccccc1n2CC#N)c1ccccc1 [Example 223, 5-(cyanomethyl)-N-ethyl-4-oxo-N-phenyl-3-(p-tolyl)-4,5-dihydro-3H-pyridazino[4,5-b]indole-1-carboxamide]
13 | 30 to 80 | < 10 | CCN(C(=O)c1nn(CC(=O)N2CCCCC2)c(=O)c2c1c1ccccc1n2C)c1ccccc1 [Example 214, N-ethyl-5-methyl-4-oxo-3-(2-oxo-2-(piperidin-1-yl)ethyl)-N-phenyl-4,5-dihydro-3H-pyridazino[4,5-b]indole-1-carboxamide]

From patent US10370366B2 (Flatley Discovery Lab, LLC, priority 2013, dated 2019)
